# In paper PMC5520654 (Journal of immunology (Baltimore, Md. : 1950), 2017):
# Read-outs that look alike come from different tables or passages of the source.
# What was measured:
# [1] = test system: VLA-4 positive B16F10 melanoma cells; details: previously reported; cited from earlier work
# [2] = test system: mice with CFA-induced inflammation; format: in vivo, mouse; details: ICR mice, CFA in right paw, 200 μCi iv, n=3
substance,measurement,setting,value
CB-TE1A1P-PEG4-LLP2A [^64Cu-LLP2A],Kd,[1],0.28 nM
same,Inflamed paw/muscle ratio,[2]; PET/CT 2 h post-injection,7.5 ± 3.7
same,Inflamed paw/muscle ratio,[2]; PET/CT 6 h post-injection,16.7 ± 1
